The target of this assay is T1, Arginase-1 (Homo sapiens, UniProt P05089).
T1 sequence (P05089 whole entry): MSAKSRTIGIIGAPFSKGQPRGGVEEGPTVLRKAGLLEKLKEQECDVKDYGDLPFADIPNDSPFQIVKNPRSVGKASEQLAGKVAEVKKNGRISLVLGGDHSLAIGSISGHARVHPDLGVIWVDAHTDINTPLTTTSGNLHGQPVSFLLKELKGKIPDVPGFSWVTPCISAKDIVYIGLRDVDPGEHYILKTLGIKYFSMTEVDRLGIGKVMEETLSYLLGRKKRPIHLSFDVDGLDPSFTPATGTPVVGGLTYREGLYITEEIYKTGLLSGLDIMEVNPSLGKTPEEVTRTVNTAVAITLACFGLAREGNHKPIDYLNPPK
Put plainly: Inhibition of human recombinant arginase 1 expressed in Escherichia coli using thioarginine by Ellman's assay. For orientation: DTNB colorimetry detects thiols as they appear.

By IC50 is commonly meant the concentration at which inhibition is half-maximal. `N[C@H]1CCN[C@@](CCCCB(O)O)(C(=O)O)C1`: the IC50 worked out at 30 nM.
